Source: patent US20250154127A1, “BICYCLIC HETEROARYL COMPOUNDS AND USES THEREOF” (ETERN BIOPHARMA (SHANGHAI) CO., LTD., priority 2022, published 2025)

Columns and labels:
MSTO-211H cells = assay: Proliferation Assay (CellTiter-Glo Luminescent Cell Viability Assay); type: cell-based; conditions: Homo sapiens, 96 hours treatment
Protocol: Example 5: Proliferation Assay
The effect of compound on YAP driven cancer cells proliferation was assessed in MSTO-211H (ATCC, CRL-2081TM) or NCI-H2052 (ATCC, CRL-5915TM) cells using CellTiter-Glo Luminescent Cell Viability Assay (Promega, G7570).
Briefly, individual cell lines were seeded in 96-well cell culture plate at the density of 1,500 cells per well and cultured in RPMII1640 (Gibco-A10491-01)+10% FBS (Gibco-10099-141C)+1% Penicillin-Streptomycin (5,000 U/mL, Gibco-15070-063) overnight at 37° C. with 5% CO2 before adding the compounds.
Following incubation, serial dilutions of compounds dissolved in DMSO were added to each well (3-fold dilution with 9 concentration points). The final concentration of DMSO present in this assay is below 0.5% and make duplication for each compound treated well.
Following 96 hours treatment, compound mediated cell growth inhibition was measured using CellTiter-Go Luminescent Cell Viability Assay (Promega, G7570). […] CellTiter-Glo in each assay well, mix and incubate at room temperature for 10 min. Read signal using EnVision® Multilabel Plate Reader (Perkin Elmer).
For data analysis, cell proliferation inhibition was calculated using the following formula:
Inhibition %=(1−(Compound treated well CTG signal/DMSO well CTG signal))*100.
IC50 values were calculated using GraphPad Prism software using a four-parameter fit model.

[1] = target: TEAD1(210-426) binding to YAP(50-100) (Homo sapiens, UniProt P28347); assay: TR-FRET Assay for TEAD1(210-426) Binding to YAP(50-100); conditions: His-TEAD 10 nM, YAP-Biotin peptide 50 nM
Protocol: Compounds were performed 3 fold serial dilution, 12 data points, added to 384 well white plate. The final DMSO concentration is 1%, duplicate for each concentration. Then His-TEAD protein was added to a final concentration of 10 nM, and allowed to preincubate for 30 minutes at room temperature. Assay buffer was added as background control.
YAP-Biotin peptide was added to a final concentration of 50 nM, mixed well, incubate 10 minutes at room temperature. The YAP(50-100) peptide sequence used here is named SEQ ID NO: 2
The Europium-labeled anti-6×His antibody and APC labeled streptavidin were diluted according to the instructions, this detection solution was mixed 1:1 with reaction solution, incubated 1 hour at room temperature.
TR-FRET measurements were made on an Envision (Perkin Elmer), using an excitation wavelength of 320 nm and emissions read at 620 nm and 665 nm. The ratio of the 665 nm to the 620 nm multiply 10000 provides a normalized TR-FRET signal that represents the extent of binding.
Half inhibition concentration IC50 value was calculated by XLfit software.

TEAD1(210-426) binding to YAP(50-100), sequence (P28347 209-426): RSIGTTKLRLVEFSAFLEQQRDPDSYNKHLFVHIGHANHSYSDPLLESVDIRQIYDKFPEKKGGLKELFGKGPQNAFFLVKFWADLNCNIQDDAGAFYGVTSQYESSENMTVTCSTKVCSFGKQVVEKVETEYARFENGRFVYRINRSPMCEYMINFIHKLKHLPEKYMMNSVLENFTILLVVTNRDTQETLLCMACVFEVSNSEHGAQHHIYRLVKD

**Q.** With `C[C@@H](c1ccccn1)n1ccc(-c2nn(-c3ccc(C(F)(F)F)cc3)c3cc(C#N)ccc23)cc1=O` [Compound 31, (S)-3-(2-oxo-1-(1-(pyridin-2-yl)ethyl)-1,2-dihydropyridin-4-yl)-1-(4-(trifluoromethyl)phenyl)-1H-indazole-6-carbonitrile] as the compound, how does the IC50 (MSTO-211H cells) read?
**A.** ≤ 1000 nM

**Q.** What about the IC50 [1] of the same compound?
**A.** > 1000 nM

**Q.** Which results are given for `COc1cccc(Cn2ccc(-c3nn(-c4ccc(C(F)(F)F)cc4)c4ccccc34)cc2=O)n1` [Compound 83, 1-((6-methoxypyridin-2-yl)methyl)-4-(1-(4-(trifluoromethyl)phenyl)-1 H-indazol-3-yl)pyridin-2(1H)-one]?
**A.** IC50 (MSTO-211H cells): ≤ 1000 nM; IC50 [1]: ≤ 100 nM

**Q.** How did the IC50 (MSTO-211H cells) turn out when `C[C@@H](c1ccccn1)n1ccc(-c2nn(-c3ccc(C(F)(F)F)cc3)c3ccc(CO)cc23)cc1=O` [Compound 24] was run?
**A.** ≤ 1000 nM

**Q.** And the IC50 [1]?
**A.** ≤ 100 nM

**Q.** What does the source list for `C[C@@H](c1ccccn1)n1ccc(-c2nn(-c3ccc(C(F)(F)F)cc3)c3cc(C(=O)O)ccc23)cc1=O` [Compound 29, (S)-3-(2-oxo-1-(1-(pyridin-2-yl)ethyl)-1,2-dihydropyridin-4-yl)-1-(4-(trifluoromethyl)phenyl)-1H-indazole-6-carboxylic acid]?
**A.** IC50 (MSTO-211H cells): ≤ 1000 nM; IC50 [1]: > 1000 nM

**Q.** With `CNc1nccc(Cn2ccc(-c3nn(-c4ccc(C(F)F)cc4)c4ncccc34)cc2=O)n1` [Compound 144, 4-(1-(4-(difluoromethyl)phenyl)-1H-pyrazolo[3,4-b]pyridin-3-yl)-1-((2-(methylamino)pyrimidin-4-yl)methyl) pyridin-2(1H)-one] as the compound, how does the IC50 (MSTO-211H cells) read?
**A.** ≤ 1000 nM

**Q.** How did the IC50 (MSTO-211H cells) turn out when `Nc1cccc(Cn2ccc(-c3nn(-c4ccc(C(F)(F)F)cc4)c4ccccc34)cc2=O)n1` [Compound 60, 1-((6-aminopyridin-2-yl)methyl)-4-(1-(4-(trifluoromethyl)phenyl)-1H-indazol-3-yl)pyridin-2(1H)-one] was run?
**A.** ≤ 1000 nM

**Q.** What about the IC50 [1] of the same compound?
**A.** ≤ 100 nM

**Q.** For `Nc1ccnc(Cn2ccc(-c3nn(-c4ccc(C(F)(F)F)cc4)c4ncccc34)cc2=O)n1` [Compound 110, 1-((4-aminopyrimidin-2-yl)methyl)-4-(1-(4-(trifluoromethyl)phenyl)-1H-pyrazolo[3,4-b]pyridin-3-yl)pyridin-2(1H)-one], which IC50 (MSTO-211H cells) is on record?
**A.** ≤ 1000 nM

**Q.** What about the IC50 [1] of the same compound?
**A.** ≤ 100 nM

**Q.** How did the IC50 (MSTO-211H cells) turn out when `CNc1nccc(Cn2ccc(-c3nn(-c4ccc(C(F)(F)F)cc4C)c4ncccc34)cc2=O)n1` [Compound 57] was run?
**A.** ≤ 1000 nM

**Q.** What about the IC50 [1] of the same compound?
**A.** ≤ 100 nM

**Q.** For `O=c1cc(-c2nn(-c3ccc(C(F)(F)F)cc3)c3c(F)cccc23)ccn1Cc1ccnc(OCCO)n1` [Compound 133, 4-(7-fluoro-1-(4-(trifluoromethyl)phenyl)-1H-indazol-3-yl)-1-((2-(2-hydroxyethoxy)pyrimidin-4-yl)methyl)pyridin-2(1H)-one], which IC50 (MSTO-211H cells) is on record?
**A.** ≤ 1000 nM

**Q.** And the IC50 [1]?
**A.** ≤ 100 nM

**Q.** Which IC50 (MSTO-211H cells) does the source give for `O=c1cc(-c2nn(-c3ccc(C(F)(F)F)cc3)c3nccnc23)ccn1Cc1ccnc(NCCO)n1` [Compound 102, 1-((2-((2-hydroxyethyl)amino)pyrimidin-4-yl)methyl)-4-(1-(4-(trifluoromethyl)phenyl)-1H-pyrazolo[3,4-b]pyrazin-3-yl)pyridin-2(1H)-one] here?
**A.** ≤ 1000 nM

**Q.** What about the IC50 [1] of the same compound?
**A.** ≤ 100 nM

**Q.** `Nc1nccc(Cn2ccc(-c3nn(-c4ccc(C(F)(F)F)cc4)c4ccccc34)cc2=O)n1` [Compound 61, 1-((2-aminopyrimidin-4-yl)methyl)-4-(1-(4-(trifluoromethyl)phenyl)-1H-indazol-3-yl)pyridin-2(1H)-one] was tested. Which IC50 (MSTO-211H cells) did it give?
**A.** ≤ 1000 nM

**Q.** And the IC50 [1]?
**A.** ≤ 100 nM

**Q.** With `O=c1cc(-c2nn(-c3ccc(C(F)(F)F)cc3)c3c(Cl)cccc23)ccn1Cc1ccnc(NCCO)n1` [Compound 148, 4-(7-chloro-1-(4-(trifluoromethyl)phenyl)-1H-indazol-3-yl)-1-((2-((2hydroxyethyl)amino)pyrimidin-4-yl)methyl)pyridin-2(1H)-one] as the compound, how does the IC50 (MSTO-211H cells) read?
**A.** ≤ 1000 nM

**Q.** What about the IC50 [1] of the same compound?
**A.** ≤ 100 nM

**Q.** `C[C@@H](c1ccccn1)n1ccc(-c2nn(-c3ccc(OC(F)(F)F)cc3)c3cccnc23)cc1=O` [Compound 1, (S)-1-(1-(pyridin-2-yl)ethyl)-4-(1-(4-(trifluoromethoxy)phenyl)-1H-pyrazolo[4,3-b]pyridin-3-yl)pyridin-2(1H)-one] was tested. Which IC50 (MSTO-211H cells) did it give?
**A.** ≤ 1000 nM

**Q.** What about the IC50 [1] of the same compound?
**A.** ≤ 100 nM

**Q.** What does the source list for `COCCNc1ccnc(Cn2ccc(-c3nn(-c4ccc(C(F)(F)F)cc4)c4ncccc34)cc2=O)n1` [Compound 76, 1-((4-((2-methoxyethyl)amino)pyrimidin-2-yl)methyl)-4-(1-(4-(trifluoromethyl)phenyl)-1H-pyrazolo[3,4-b]pyridin-3-yl)pyridin-2(1H)-one]?
**A.** IC50 (MSTO-211H cells): ≤ 1000 nM; IC50 [1]: ≤ 100 nM

**Q.** Which IC50 (MSTO-211H cells) does the source give for `O=c1cc(-c2nn(-c3ccc(C(F)(F)F)cc3)c3cccc(F)c23)ccn1Cc1ccnc(OCCO)n1` [Compound 153, 4-(4-fluoro-1-(4-(trifluoromethyl)phenyl)-1H-indazol-3-yl)-1-((2-(2-hydroxyethoxy)pyrimidin-4-yl)methyl)pyridin-2(1H)-one] here?
**A.** ≤ 1000 nM

**Q.** And the IC50 [1]?
**A.** ≤ 100 nM

**Q.** For `C[C@@H](c1ccccn1)n1ccc(-c2nn(-c3ccc(C(F)(F)F)cc3)c3ncccc23)cc1=O` [Compound 20, (S)-1-(1-(pyridin-2-yl)ethyl)-4-(1-(4-(trifluoromethyl)phenyl)-1H-pyrazolo[3,4-b]pyridin-3-yl)pyridin-2(1H)-one], which IC50 (MSTO-211H cells) is on record?
**A.** ≤ 1000 nM

**Q.** What about the IC50 [1] of the same compound?
**A.** ≤ 100 nM

**Q.** `O=c1cc(-c2nn(-c3ccc(C(F)(F)F)cc3)c3ncccc23)ccn1Cc1cccnc1` [Compound 88, 1-(pyridin-3-ylmethyl)-4-(1-(4-(trifluoromethyl)phenyl)-1H-pyrazolo[3,4-b]pyridin-3-yl)pyridin-2(1H)-one] was tested. Which IC50 (MSTO-211H cells) did it give?
**A.** ≤ 1000 nM

**Q.** What about the IC50 [1] of the same compound?
**A.** ≤ 100 nM

**Q.** For `C[C@@H](c1ccccn1)n1ccc(-c2nc(-c3ccc(C(F)(F)F)cc3)n3ccccc23)cc1=O` [Compound 35, (S)-1-(1-(pyridin-2-yl)ethyl)-4-(3-(4-(trifluoromethyl)phenyl)imidazo[1,5-a]pyridin-1-yl)pyridin-2(1H)-one], which IC50 [1] is on record?
**A.** ≤ 100 nM

**Q.** `Cn1cc(Cn2ccc(-c3nn(-c4ccc(C(F)(F)F)cc4)c4ccccc34)cc2=O)cn1` [Compound 36, 1-((1-methyl-1H-pyrazol-4-yl)methyl)-4-(1-(4-(trifluoromethyl)phenyl)-1H-indazol-3-yl)pyridin-2(1H)-one] was tested. Which IC50 [1] did it give?
**A.** 100 to 1000 nM

**Q.** How did the IC50 [1] turn out when `C[C@@H](c1ccccn1)n1ccc(-c2nn(-c3ccc(C(F)(F)F)cc3)c3ccc(C(=O)O)cc23)cc1=O` [Compound 21] was run?
**A.** 100 to 1000 nM

**Q.** With `O=c1cc(-c2nn(-c3ccc(C(F)(F)F)cc3)c3ccccc23)ccn1C1CCOCC1` [Compound 27] as the compound, how does the IC50 [1] read?
**A.** > 1000 nM

**Q.** How did the IC50 [1] turn out when `C[C@@H](c1ccccn1)n1ccc(-c2nn(-c3ccc(C(F)(F)F)cc3)c3ccc(C(N)=O)cc23)cc1=O` [Compound 23] was run?
**A.** 100 to 1000 nM

**Q.** With `C[C@@H](c1ccccn1)n1ccc(-n2nc(-c3ccc(C(F)(F)F)cc3)c3cccnc32)cc1=O` [Compound 32, (S)-1-(1-(pyridin-2-yl)ethyl)-4-(3-(4-(trifluoromethyl)phenyl)-1H-pyrazolo[3,4-b]pyridin-1-yl)pyridin-2(1H)-one] as the compound, how does the IC50 [1] read?
**A.** ≤ 100 nM

**Q.** With `CN(CCO)c1ccnc(Cn2ccc(-c3nn(-c4ccc(C(F)(F)F)cc4)c4ccccc34)cc2=O)n1` [Compound 79, 1-((4-((2-hydroxyethyl)(methyl)amino)pyrimidin-2-yl)methyl)-4-(1-(4-(trifluoromethyl)phenyl)-1H-indazol-3-yl)pyridin-2(1H)-one] as the compound, how does the IC50 (MSTO-211H cells) read?
**A.** ≤ 1000 nM

**Q.** For `Cn1ccc(-c2nn(-c3ccc(C(F)(F)F)cc3)c3cccnc23)cc1=O` [Compound 10, 1-methyl-4-(1-(4-(trifluoromethyl)phenyl)-1H-pyrazolo[4,3-b]pyridin-3-yl)pyridin-2(1H)-one], which IC50 [1] is on record?
**A.** > 1000 nM

**Q.** `C[C@@H](c1ccccn1)n1ccc(-c2nn(-c3ccc(C(F)(F)F)cc3)c3ccc(C#N)cc23)cc1=O` [Compound 25] was tested. Which IC50 [1] did it give?
**A.** 100 to 1000 nM

**Q.** Which IC50 [1] does the source give for `COC(=O)c1ccc2c(c1)c(-c1ccn([C@@H](C)c3ccccn3)c(=O)c1)nn2-c1ccc(C(F)(F)F)cc1` [Compound 22, methyl (S)-3-(2-oxo-1-(1-(pyridin-2-yl)ethyl)-1,2-dihydropyridin-4-yl)-1-(4-(trifluoromethyl)phenyl)-1H-indazole-5-carboxylate] here?
**A.** 100 to 1000 nM

**Q.** For `COC(=O)c1ccc2c(-c3ccn([C@@H](C)c4ccccn4)c(=O)c3)nn(-c3ccc(C(F)(F)F)cc3)c2c1` [Compound 26, methyl (S)-3-(2-oxo-1-(1-(pyridin-2-yl)ethyl)-1,2-dihydropyridin-4-yl)-1-(4-(trifluoromethyl)phenyl)-1H-indazole-6-carboxylate], which IC50 [1] is on record?
**A.** 100 to 1000 nM
